Measurements from patent publication US10899770B2, “Crystal form of ACP-196 salt and preparation method, pharmaceutical composition, and use thereof” (Hangzhou SoliPharma Co., Ltd., priority 2017, dated 2021).
Counter-ions that a name gives are not always drawn.

Experiments:
[1] = Solubility test in water; assay type: physicochemical; conditions: for Solubility test results / solubility: 20 mg sample, water, 25° C. water bath, water added until completely dissolved (not more than 200 mL); for solubility compared with amorphous ACP-196 (ACP-196 of Preparation Example 1): in water, Comparative Example 1; for solubility: 25 °C, thermodynamic from solid
Experimental: Solubility test: took 20 mg ACP-196 of Preparation Example 1, 20 mg ACP-196 malate Form 1 of the invention, 20 mg ACP-196 hemifumarate Form 1 of the invention, 20 mg ACP-196 maleate Form 1 of the invention, 20 mg ACP-196 phosphate Form 1 of the invention and 20 mg ACP-196 sulfate Form 1 of the invention, then placed in the beaker respectively added 1.0 mL water, stirred for 1 to 2 minutes under the condition of 25° C. water bath, observed and if not totally dissolved, added water (not more than 200 mL in total) until it's completely dissolved.

[2] = Isothermal sorption (dynamic vapor sorption), weight change with relative humidity; assay type: physicochemical; conditions: for hygroscopicity compared with amorphous ACP-196: 30 to 80% RH; for weight change (isothermal sorption plot): between 30% and 80% relative humidity
Experimental: Dynamic vapor sorption data and isothermal sorption data were collected on TA Instruments Q5000 TGA. Method: A sample of 1 to 10 mg was placed in a platinum pan; the weight change of the sample during the change in relative humidity from 0% to 80% to 0% was measured.

| SMILES | Solubility test results [1] | solubility compared with amorphous ACP-196 (ACP-196 of Preparation Example 1) [1] | hygroscopicity compared with amorphous ACP-196 [2] | solubility [1] | weight change (isothermal sorption plot) [2] | weight change (isothermal sorption plot) ([2]; listed as amorphous ACP-196) |
| --- | --- | --- | --- | --- | --- | --- |
| CC#CC(=O)N1CCC[C@H]1c1nc(-c2ccc(C(=O)Nc3ccccn3)cc2)c2c(N)nccn12 [ACP-196 malate Form 1] | 1430 µg/mL | higher solubility | – | – | – | – |
| CC#CC(=O)N1CCC[C@H]1c1nc(-c2ccc(C(=O)Nc3ccccn3)cc2)c2c(N)nccn12 [ACP-196 phosphate Form 1] | – | higher solubility | less hygroscopic | – | – | – |
| CC#CC(=O)N1CCC[C@H]1c1nc(-c2ccc(C(=O)Nc3ccccn3)cc2)c2c(N)nccn12.O=C(O)/C=C/C(=O)O [ACP-196 hemifumarate Form 1] | – | higher solubility | less hygroscopic | 910 µg/mL | – | – |
| CC#CC(=O)N1CCC[C@H]1c1nc(-c2ccc(C(=O)Nc3ccccn3)cc2)c2c(N)nccn12.O=C(O)/C=C\C(=O)O [ACP-196 maleate Form 1] | – | higher solubility | less hygroscopic | 1330 µg/mL | – | – |
| CC#CC(=O)N1CCC[C@H]1c1nc(-c2ccc(C(=O)Nc3ccccn3)cc2)c2c(N)nccn12 [ACP-196 sulfate Form 1] | – | higher solubility | – | – | – | – |
| CC#CC(=O)N1CCC[C@H]1c1nc(-c2ccc(C(=O)Nc3ccccn3)cc2)c2c(N)nccn12 [ACP-196] | Less than 0.1 mg/mL | – | – | – | 5.5% | 5.5% |
